Reference: patent publication US10670605B2, “Cysteine reactive probes and uses thereof” (The Scripps Research Institute, priority 2015, dated 2020)
Where “and” joins values, the source holds several entries; their conditions need not be identical. Equal values may be shown once.

Columns and labels:
Experiment in all cases: Competitive isoTOP-ABPP, cell lysates
Type in all cases: binding
XPO1 C528 (O14980) = XPO1 C528 (O14980) (Homo sapiens, UniProt O14980); conditions: for isoTOP-ABPP ratio O14980_C528: 231; for isoTOP-ABPP reactivity profile ratio, O14980_C528 / isoTOP-ABPP reactivity ratio, O14980_C528: 500 μm
Sequence of XPO1 C528 (O14980) (O14980 whole entry): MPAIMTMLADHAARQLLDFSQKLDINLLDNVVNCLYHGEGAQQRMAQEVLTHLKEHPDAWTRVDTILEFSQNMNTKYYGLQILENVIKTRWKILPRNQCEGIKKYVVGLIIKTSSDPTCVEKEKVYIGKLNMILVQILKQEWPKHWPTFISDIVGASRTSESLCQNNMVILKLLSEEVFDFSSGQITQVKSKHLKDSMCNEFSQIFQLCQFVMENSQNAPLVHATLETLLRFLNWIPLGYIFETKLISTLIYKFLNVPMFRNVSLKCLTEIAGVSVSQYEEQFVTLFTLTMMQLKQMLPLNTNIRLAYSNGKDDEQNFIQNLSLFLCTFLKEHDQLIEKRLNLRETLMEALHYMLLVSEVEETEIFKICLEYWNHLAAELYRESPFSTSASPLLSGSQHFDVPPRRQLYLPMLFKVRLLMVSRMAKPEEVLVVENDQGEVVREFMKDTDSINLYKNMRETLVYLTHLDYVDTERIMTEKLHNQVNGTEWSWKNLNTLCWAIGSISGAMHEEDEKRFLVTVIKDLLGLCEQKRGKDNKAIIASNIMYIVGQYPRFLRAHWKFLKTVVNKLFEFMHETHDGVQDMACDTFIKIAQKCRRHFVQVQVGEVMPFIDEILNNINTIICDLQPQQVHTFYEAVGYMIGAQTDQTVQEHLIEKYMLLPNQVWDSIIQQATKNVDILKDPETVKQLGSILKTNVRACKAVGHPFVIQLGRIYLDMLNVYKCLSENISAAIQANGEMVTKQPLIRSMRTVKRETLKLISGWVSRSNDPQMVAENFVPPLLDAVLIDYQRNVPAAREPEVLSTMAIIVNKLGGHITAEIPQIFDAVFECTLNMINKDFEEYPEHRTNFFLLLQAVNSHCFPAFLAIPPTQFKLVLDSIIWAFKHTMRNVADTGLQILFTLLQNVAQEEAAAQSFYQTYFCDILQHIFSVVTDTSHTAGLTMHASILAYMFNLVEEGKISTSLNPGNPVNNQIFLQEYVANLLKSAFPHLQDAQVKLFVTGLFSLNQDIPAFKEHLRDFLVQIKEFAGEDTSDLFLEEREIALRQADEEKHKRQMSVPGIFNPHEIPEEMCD

STAT3 C259 (P40763) = STAT3 C259 (P40763) (Homo sapiens, UniProt P40763)
Sequence of STAT3 C259 (P40763) (P40763 whole entry): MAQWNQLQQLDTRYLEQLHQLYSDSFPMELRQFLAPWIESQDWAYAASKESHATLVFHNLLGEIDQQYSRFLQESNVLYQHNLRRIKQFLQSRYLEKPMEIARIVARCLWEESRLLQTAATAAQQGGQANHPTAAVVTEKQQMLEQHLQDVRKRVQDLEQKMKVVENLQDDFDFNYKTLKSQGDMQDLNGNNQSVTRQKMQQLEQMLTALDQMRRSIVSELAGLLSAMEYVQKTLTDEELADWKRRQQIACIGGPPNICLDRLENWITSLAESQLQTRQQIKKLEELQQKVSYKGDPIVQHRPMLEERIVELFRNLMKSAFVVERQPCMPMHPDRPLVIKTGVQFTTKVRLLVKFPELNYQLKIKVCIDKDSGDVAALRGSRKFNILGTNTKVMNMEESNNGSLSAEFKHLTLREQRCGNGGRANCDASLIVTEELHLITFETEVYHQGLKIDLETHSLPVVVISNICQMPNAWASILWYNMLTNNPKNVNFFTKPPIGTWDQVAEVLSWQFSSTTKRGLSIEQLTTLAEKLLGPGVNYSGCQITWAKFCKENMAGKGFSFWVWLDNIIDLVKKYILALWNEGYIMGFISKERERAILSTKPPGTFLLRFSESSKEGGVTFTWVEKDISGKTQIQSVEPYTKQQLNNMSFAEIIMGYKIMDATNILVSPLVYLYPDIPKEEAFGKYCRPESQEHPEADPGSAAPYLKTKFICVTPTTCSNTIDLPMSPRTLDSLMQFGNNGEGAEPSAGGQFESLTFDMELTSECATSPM

IRF4 C194 (Q15306) = target: T1, IRF4 C194 (Q15306) (Homo sapiens, UniProt Q15306); conditions: for isoTOP-ABPP ratio (reactivity profile), Q15306_C194: 500 μm in-vitro ramos; for isoTOP-ABPP reactivity profile ratio, Q15306_C194 / isoTOP-ABPP reactivity ratio, Q15306_C194: 500 μm, in-vitro_ramos
T1 sequence (Q15306 1-451): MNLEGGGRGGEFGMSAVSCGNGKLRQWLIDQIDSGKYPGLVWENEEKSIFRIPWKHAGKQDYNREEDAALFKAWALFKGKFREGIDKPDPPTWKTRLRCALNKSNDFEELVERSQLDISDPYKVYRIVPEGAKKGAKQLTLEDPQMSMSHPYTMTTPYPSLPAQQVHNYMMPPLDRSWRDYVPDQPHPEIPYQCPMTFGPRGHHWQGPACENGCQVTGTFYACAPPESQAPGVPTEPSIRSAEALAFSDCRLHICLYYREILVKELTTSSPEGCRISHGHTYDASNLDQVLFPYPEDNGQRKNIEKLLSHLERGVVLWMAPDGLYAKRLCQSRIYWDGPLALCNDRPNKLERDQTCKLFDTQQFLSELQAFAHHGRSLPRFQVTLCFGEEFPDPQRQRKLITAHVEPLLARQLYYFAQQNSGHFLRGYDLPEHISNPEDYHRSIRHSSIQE

ERCC3 C342 (P19447) = target: T2, ERCC3 C342 (P19447) (Homo sapiens, UniProt P19447); conditions: for R value (DMSO/fragment): in vitro; for isoTOP-ABPP ratio P19447_C342: invitro
T2 sequence (P19447 1-782): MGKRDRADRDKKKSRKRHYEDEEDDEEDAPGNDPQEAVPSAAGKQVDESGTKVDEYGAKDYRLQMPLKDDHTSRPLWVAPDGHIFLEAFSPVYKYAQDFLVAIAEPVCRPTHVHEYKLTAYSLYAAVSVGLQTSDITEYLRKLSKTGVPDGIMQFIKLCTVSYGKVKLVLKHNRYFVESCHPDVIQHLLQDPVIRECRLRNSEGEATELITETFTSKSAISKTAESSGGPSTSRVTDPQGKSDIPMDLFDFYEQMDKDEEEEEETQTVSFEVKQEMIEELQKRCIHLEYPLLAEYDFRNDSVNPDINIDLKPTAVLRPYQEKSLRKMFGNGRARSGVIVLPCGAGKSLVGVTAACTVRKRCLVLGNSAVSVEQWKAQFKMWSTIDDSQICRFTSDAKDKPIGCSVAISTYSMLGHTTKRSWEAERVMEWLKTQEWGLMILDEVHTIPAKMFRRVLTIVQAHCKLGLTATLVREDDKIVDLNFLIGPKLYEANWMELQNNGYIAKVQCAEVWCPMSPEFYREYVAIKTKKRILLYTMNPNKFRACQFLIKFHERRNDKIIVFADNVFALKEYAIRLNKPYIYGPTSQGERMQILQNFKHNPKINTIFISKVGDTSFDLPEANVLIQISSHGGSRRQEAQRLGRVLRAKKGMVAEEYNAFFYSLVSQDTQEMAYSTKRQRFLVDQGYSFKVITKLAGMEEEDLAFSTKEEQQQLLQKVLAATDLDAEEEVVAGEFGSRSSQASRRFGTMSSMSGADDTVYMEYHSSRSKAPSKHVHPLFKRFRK
Method: TEV digests were pressure loaded onto a 250 μm (inner diameter) fused silica capillary column packed with C18 resin (Aqua 5 μm, Phenomenex). The samples were analyzed by multidimensional liquid chromatography tandem mass spectrometry (MudPIT), using an LTQ-Velos Orbitrap mass spectrometer (Thermo Scientific) coupled to an Agilent 1200-series quaternary pump. […] One full MS (MS1) scan (400-1800 m/z) was followed by 30 MS2 scans (ITMS) of the nth most abundant ions.
The ratios of heavy/light for each unique peptide (DMSO/compound treated; isoTOP-ABPP ratios, R values) were quantified with in-house CIMAGE software, using default parameters (3 ms s per peak and signal to noise threshold 2.5). Site-specific engagement of electrophilic fragments was assessed by blockade of IA-alkyne probe labeling. […] Ratios for unique peptide entries were calculated for each experiment; overlapping peptides with the same modified cysteine (e.g. different charge states, MudPIT chromatographic steps or tryptic termini) were grouped together and the median ratio was reported as the final ratio (R). The peptide ratios reported by CIMAGE were further filtered to ensure the removal or correction of low quality ratios in each individual dataset. The quality filters applied were the following: removal of half tryptic peptides; for ratios with high standard deviations from the median (90% of the median or above) the lowest ratio was taken instead of the median; removal of peptides with R=20 and only a single ms2 event triggered during the elution of the parent ion; manual annotation of all the peptides with ratios of 20, removing any peptides with low-quality elution profiles that remained after the previous curation steps. Proteome reactivity values for individual fragments were computed as the percentage of the total quantified cysteine-containing peptides with R values≥4 (defined as liganded cysteines) for each replicate experiment and the final proteome reactivity value was calculated as the mean for all replicate experiments for each fragment from both MDA-MB-231 and Ramos cellular proteomes.
Biological replicates of the same compound and cell-line were averaged if the standard deviation was below 60% of the mean; otherwise the lowest value of the ratio set was taken. For peptides with multiple modified cysteines, the cysteine with the highest number of quantification events was kept and the remaining, redundant peptides were discarded. […] Although the majority (>75% of fragments) were profiled in at least two biological replicates, some data from single replicate MS experiments were included.

Compound: C=CC(=O)N(Cc1cccnc1)c1ccc(Oc2ccccc2)c(C(F)(F)F)c1 [compound 15]
- isoTOP-ABPP ratio O14980_C528 (XPO1 C528 (O14980); 500 μM, invitro): 0.8
- isoTOP-ABPP ratio (reactivity profile), O14980_C528 (XPO1 C528 (O14980); 500 μm in-vitro ramos): 1.0
- isoTOP-ABPP ratio (reactivity profile), P40763_C259 (STAT3 C259 (P40763); 500 μm in-vitro ramos): 1.9
- isoTOP-ABPP ratio (reactivity profile), Q15306_C194 (IRF4 C194 (Q15306)): 2.2

Compound: COc1cc(NC(=O)CCl)cc(OC)c1 [compound 43]
- isoTOP-ABPP reactivity profile ratio, O14980_C528 (XPO1 C528 (O14980); in-vitro_ramos_231): 4.6
- isoTOP-ABPP reactivity profile ratio, Q15306_C194 (IRF4 C194 (Q15306)): 3.0

Compound: CC(C)CCOCCNC(=O)CCl [compound 27]
- isoTOP-ABPP ratio (reactivity profile), P19447_C342 (ERCC3 C342 (P19447); 500 μm in-vitro ramos_231): 0.8 and 1.1
- isoTOP-ABPP ratio (reactivity profile), O14980_C528 (XPO1 C528 (O14980); 500 μm in-vitro ramos): 0.8
- isoTOP-ABPP ratio (reactivity profile), O14980_C528 (XPO1 C528 (O14980); 500 μm in-vitro ramos_231): 1.2 and 0.9
- isoTOP-ABPP ratio (reactivity profile), P40763_C259 (STAT3 C259 (P40763); 500 μm in-vitro ramos_231): 0.7
- isoTOP-ABPP ratio (reactivity profile), Q15306_C194 (IRF4 C194 (Q15306)): 1.0

Compound: C=CC(=O)N1CCC(c2noc3ccc(F)cc23)CC1 [compound 37]
- isoTOP-ABPP reactivity ratio, O14980_C528 (XPO1 C528 (O14980); in-vitro_ramos): 0.9
- isoTOP-ABPP reactivity ratio, P40763_C259 (STAT3 C259 (P40763); 500 μm, in-vitro_ramos): 0.9
- isoTOP-ABPP reactivity ratio, Q15306_C194 (IRF4 C194 (Q15306)): 0.9

Compound: COc1ccc(C2CC(c3cccs3)=NN2C(=O)CCl)cc1 (centres unmarked) [compound 4]
- R value (DMSO/fragment) (ERCC3 C342 (P19447); 250 μM, MDA-MB-231): 1.6
- R value (DMSO/fragment) (ERCC3 C342 (P19447); 250 μM, Ramos): 1.1
- R value (DMSO/fragment) (XPO1 C528 (O14980); 250 μM, in vitro, MDA-MB-231): 0.9
- R value (DMSO/fragment) (XPO1 C528 (O14980); 250 μM, in vitro, Ramos): 1.1
- R value (DMSO/fragment) (STAT3 C259 (P40763); 250 μM, in vitro, MDA-MB-231): 2.0
- R value (DMSO/fragment) (STAT3 C259 (P40763); 250 μM, in vitro, Ramos): 1.9

Compound: O=C(/C=C/c1ccccc1)Nc1cc(C(F)(F)F)cc(C(F)(F)F)c1 [compound 26]
- isoTOP-ABPP ratio (reactivity profile), O14980_C528 (XPO1 C528 (O14980); 500 μm in-vitro ramos): 0.9
- isoTOP-ABPP ratio (reactivity profile), Q15306_C194 (IRF4 C194 (Q15306)): 1.1

Compound: O=C(CCl)Nc1cccc2ncccc12 [compound 51]
- isoTOP-ABPP reactivity profile ratio, P19447_C342 (ERCC3 C342 (P19447); 500 μm, in-vitro_ramos_231): 1.4
- isoTOP-ABPP reactivity profile ratio, O14980_C528 (XPO1 C528 (O14980); in-vitro_ramos): 0.9
- isoTOP-ABPP reactivity profile ratio, Q15306_C194 (IRF4 C194 (Q15306)): 1.4

Compound: COc1ccccc1OCCNC(=O)CCl [compound 28]
- isoTOP-ABPP ratio (reactivity profile), P40763_C259 (STAT3 C259 (P40763); 500 μm in-vitro ramos): 1.1
- isoTOP-ABPP ratio (reactivity profile), P40763_C259 (STAT3 C259 (P40763); 500 μm in-vitro ramos_231): 1.0
- isoTOP-ABPP ratio (reactivity profile), Q15306_C194 (IRF4 C194 (Q15306)): 1.1

Compound: O=C(CCl)N1CCN(S(=O)(=O)c2ccccc2F)CC1 [compound 10]
- isoTOP-ABPP ratio P19447_C342 (ERCC3 C342 (P19447); 500 μM, 231): 3.0
- isoTOP-ABPP ratio O14980_C528 (XPO1 C528 (O14980); 500 μM, invitro): 0.8
- isoTOP-ABPP ratio, P40763_C259 (STAT3 C259 (P40763); 500 μM, invitro, 231): 3.4
- isoTOP-ABPP ratio, Q15306_C194 (IRF4 C194 (Q15306); 500 μM, invitro, ramos): 2.5

Compound: O=C(CCl)Nc1ccccc1C1CCCCCC1 [compound 35]
- isoTOP-ABPP reactivity ratio, O14980_C528 (XPO1 C528 (O14980); in-vitro_ramos): 0.8
- isoTOP-ABPP reactivity ratio, P40763_C259 (STAT3 C259 (P40763); 500 μm, in-vitro_ramos): 1.1
- isoTOP-ABPP reactivity ratio, Q15306_C194 (IRF4 C194 (Q15306)): 1.0

Compound: C=CC(=O)N(c1ccccc1)C1CCCCC1 [compound 46]
- isoTOP-ABPP reactivity profile ratio, P19447_C342 (ERCC3 C342 (P19447); 500 μm, in-vitro_ramos_231): 1.0
- isoTOP-ABPP reactivity profile ratio, O14980_C528 (XPO1 C528 (O14980); in-vitro_ramos_231): 0.7
- isoTOP-ABPP reactivity profile ratio, P40763_C259 (STAT3 C259 (P40763); 500 μm, in-vitro_ramos_231): 1.2

Compound: Cc1ccc(C=C(C#N)C(=O)NCCN2CCOCC2)cc1 [compound 41]
- isoTOP-ABPP reactivity ratio, P19447_C342 (ERCC3 C342 (P19447); 500 μm, in-vitro_ramos_231): 1.1
- isoTOP-ABPP reactivity ratio, O14980_C528 (XPO1 C528 (O14980); in-vitro_ramos_231): 0.6
- isoTOP-ABPP reactivity ratio, P40763_C259 (STAT3 C259 (P40763); 500 μm, in-vitro_ramos_231): 0.9
- isoTOP-ABPP reactivity ratio, Q15306_C194 (IRF4 C194 (Q15306)): 1.2

Compound: O=C(CCl)N(Cc1ccc(F)cc1)C12CC3CC(CC(C3)C1)C2 [compound 34]
- isoTOP-ABPP reactivity ratio, O14980_C528 (XPO1 C528 (O14980); in-vitro_ramos): 1.1

Compound: CC(C)(C)c1cc(NC(=O)CCl)on1 [compound 32]
- isoTOP-ABPP reactivity ratio, O14980_C528 (XPO1 C528 (O14980); in-vitro_ramos): 1.2
- isoTOP-ABPP reactivity ratio, O14980_C528 (XPO1 C528 (O14980); in-vitro_ramos_231): 1.7
- isoTOP-ABPP reactivity ratio, P40763_C259 (STAT3 C259 (P40763); 500 μm, in-vitro_ramos_231): 10.2
- isoTOP-ABPP reactivity ratio, Q15306_C194 (IRF4 C194 (Q15306)): 3.7

Compound: C=CC(=O)N(c1ccccc1)c1ccc(Br)cc1 [compound 5]
- isoTOP-ABPP ratio P19447_C342 (ERCC3 C342 (P19447); 500 μM, ramos): 4.1
- isoTOP-ABPP ratio O14980_C528 (XPO1 C528 (O14980); 500 μM, invitro): 20.0
- isoTOP-ABPP ratio, Q15306_C194 (IRF4 C194 (Q15306); 500 μM, invitro, ramos): 2.2

Compound: O=C(CCl)Nc1cc(C(F)(F)F)cc(C(F)(F)F)c1 [compound 3]
- R value (DMSO/fragment) (ERCC3 C342 (P19447); 500 μM, MDA-MB-231): 12.1
- R value (DMSO/fragment) (XPO1 C528 (O14980); 500 μM, in vitro, MDA-MB-231): 20.0
- R value (DMSO/fragment) (XPO1 C528 (O14980); 500 μM, invitro, ramos): 20.0
- R value (DMSO/fragment) (STAT3 C259 (P40763); 500 μM, in vitro, MDA-MB-231): 2.5
- R value (DMSO/fragment) (STAT3 C259 (P40763); 500 μM, invitro, ramos): 2.9
- R value (DMSO/fragment) (IRF4 C194 (Q15306); 500 μM, invitro, ramos): 20.0

Compound: COc1ccc2c(c1)CCCN2C(=O)CCl [compound 2]
- R value (DMSO/fragment) (ERCC3 C342 (P19447); 500 μM, MDA-MB-231): 20.0
- R value (DMSO/fragment) (XPO1 C528 (O14980); 500 μM, in vitro, MDA-MB-231): 4.9
- R value (DMSO/fragment) (XPO1 C528 (O14980); 500 μM, invitro, ramos): 3.1
